Data from US11166959B2, “Isofuranone compounds useful as HPK1 inhibitors” (BRISTOL-MYERS SQUIBB COMPANY, priority 2017, dated 2021).
Like-named read-outs stand apart in the source and are kept apart here.

Legend:
[1] = molecular target: T1, IRAK4 (Homo sapiens, UniProt Q9NWZ3); test: IRAK4 Inhibition Assay (kinase reaction, Caliper capillary electrophoresis); assay type: biochemical; details: 500 μM ATP, 11 concentrations
T1 construct: 1 nM IRAK4 (160-460); purchased SignalChem M24016
T1 sequence (Q9NWZ3 160-460): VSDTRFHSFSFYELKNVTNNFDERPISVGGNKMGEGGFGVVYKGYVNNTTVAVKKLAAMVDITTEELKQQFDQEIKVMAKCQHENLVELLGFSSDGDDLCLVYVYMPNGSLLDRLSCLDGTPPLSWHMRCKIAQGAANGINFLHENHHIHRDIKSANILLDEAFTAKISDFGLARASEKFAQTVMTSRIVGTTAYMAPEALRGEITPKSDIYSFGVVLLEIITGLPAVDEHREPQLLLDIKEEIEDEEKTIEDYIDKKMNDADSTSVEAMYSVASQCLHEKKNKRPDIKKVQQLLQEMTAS
Experimental: (§1) The reactions were incubated out for three hours and quenched with 1 mM EDTA solution. The reaction incubation time and enzyme concentration were optimized to obtain a maximum peptide substrate conversion of 20-30%. The reaction mixtures were analyzed by capillary electrophoresis on a Caliper LabChip EZ Reader to resolve phosphorylated and unphosphorylated peptide species and determine peptide substrate conversion. […] The compounds were dissolved in DMSO and evaluated at 11 concentrations to determine IC50 values.

[2] = molecular target: T2, HPK1 (Homo sapiens, UniProt Q92918); test: HPK1 Inhibition Assay (kinase reaction, Caliper capillary electrophoresis); assay type: biochemical; details: for IRAK4/HPK1 Ratio: ratio of the IRAK4 IC50 value to the HPK1 IC50 value
T2 construct: purchased SignalChem M23-11G
T2 sequence (Q92918 1-346 limits assumed): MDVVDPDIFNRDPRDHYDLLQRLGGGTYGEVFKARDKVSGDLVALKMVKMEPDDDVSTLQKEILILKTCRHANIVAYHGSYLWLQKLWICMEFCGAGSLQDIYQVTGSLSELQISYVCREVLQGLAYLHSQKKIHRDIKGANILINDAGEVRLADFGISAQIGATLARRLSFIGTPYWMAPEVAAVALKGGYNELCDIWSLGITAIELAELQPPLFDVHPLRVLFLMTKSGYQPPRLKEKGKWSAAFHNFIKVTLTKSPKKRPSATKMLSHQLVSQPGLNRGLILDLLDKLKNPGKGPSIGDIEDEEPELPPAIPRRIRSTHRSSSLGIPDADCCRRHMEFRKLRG
Experimental: as §1, with “to determine the IC50 values.” for “to determine IC50 values.”

[3] = 0.625 nM HPK1, 22 μM ATP, 11 concentrations, read-out: HPK1 IC50

Row | Structure (SMILES) | IC50 [1] [nM] | IC50 [2] [nM] | IRAK4/HPK1 Ratio [2] | IC50 [2, 3] [nM]
1 | CC1(C)OC(=O)c2ccc(Nc3ncc(C(=O)NCC4CN5CCC4CC5)c(N[C@H](CO)c4ccccc4)n3)cc21 (stereo partly drawn) [Example 25, N-({1-azabicyclo[2.2.2]octan-3-yl}methyl)-2-[(3,3-dimethyl-1-oxo-1,3-dihydro-2-benzofuran-5-yl)amino]-4-{[(1S)-2-hydroxy-1-phenylethyl]amino}pyrimidine-5-carboxamide] | 250 to 1000 | < 50 | B (B=10 to 50) | –
2 | CC1(C)OC(=O)c2ccc(Nc3ncc(C(=O)NCC4(CN5CCOCC5)CC4)c(N[C@H](CO)c4ccccc4)n3)cc21 [Example 26, 2-[(3,3-dimethyl-1-oxo-1,3-dihydro-2-benzofuran-5-yl)amino]-4-{[(1S)-2-hydroxy-1-phenylethyl]amino}-N-({1-[(morpholin-4-yl)methyl]cyclopropyl}methyl)pyrimidine-5-carboxamide] | 250 to 1000 | – | C (C=>50) | < 50
3 | CC1(C)OC(=O)c2ccc(Nc3ncc(C4=NCC5(CCOCC5)O4)c(N[C@H](CO)c4ccccc4)n3)cc21 [Example 27, 5-[(5-{1,8-dioxa-3-azaspiro[4.5]dec-2-en-2-yl}-4-{[(1S)-2-hydroxy-1-phenylethyl]amino}pyrimidin-2-yl)amino]-3,3-dimethyl-1,3-dihydro-2-benzofuran-1-one] | 50 to 250 | – | B (B=10 to 50) | < 50
4 | CC1(C)OC(=O)c2ccc(Nc3ncc(-c4nc(N5CCOCC5)no4)c(N[C@H](CO)c4ccccc4)n3)cc21 [Example 31, 5-[(4-{[(1S)-2-hydroxy-1-phenylethyl]amino}-5-[3-(morpholin-4-yl)-1,2,4-oxadiazol-5-yl]pyrimidin-2-yl)amino]-3,3-dimethyl-1,3-dihydro-2-benzofuran-1-one] | 50 to 250 | – | C (C=>50) | < 50
5 | CC1(C)OC(=O)c2ccc(Nc3ncc(-c4nc(CN5CCOCC5)no4)c(N[C@H](CO)c4ccccc4)n3)cc21 [Example 32, 5-[(4-{[(1S)-2-hydroxy-1-phenylethyl]amino}-5-{3-[(morpholin-4-yl)methyl]-1,2,4-oxadiazol-5-yl}pyrimidin-2-yl)amino]-3,3-dimethyl-1,3-dihydro-2-benzofuran-1-one] | 250 to 1000 | – | C (C=>50) | < 50
6 | CC1(C)OC(=O)c2ccc(Nc3ncc(-c4nc(C5CCOCC5)no4)c(N[C@H](CO)c4ccccc4)n3)cc21 [Example 33, 5-[(4-{[(1S)-2-hydroxy-1-phenylethyl]amino}-5-[3-(oxan-4-yl)-1,2,4-oxadiazol-5-yl]pyrimidin-2-yl)amino]-3,3-dimethyl-1,3-dihydro-2-benzofuran-1-one] | 50 to 250 | – | C (C=>50) | < 50
7 | CCCc1noc(-c2cnc(Nc3ccc4c(c3)C(C)(C)OC4=O)nc2N[C@H](CO)c2ccccc2)n1 [Example 35, 5-[(4-{[(1S)-2-hydroxy-1-phenylethyl]amino}-5-(3-propyl-1,2,4-oxadiazol-5-yl)pyrimidin-2-yl)amino]-3,3-dimethyl-1,_3-dihydro-2-benzofuran-1-one] | 250 to 1000 | – | C (C=>50) | < 50
8 | CCCCc1noc(-c2cnc(Nc3ccc4c(c3)C(C)(C)OC4=O)nc2N[C@H](CO)c2ccccc2)n1 [Example 36, 5-{[5-(3-butyl-1,2,4-oxadiazol-5-yl)-4-{[(1S)-2-hydroxy-1-phenylethyl]amino}pyrimidin-2-yl]amino}-3,3-dimethyl-1,3-dihydro-2-benzofuran-1-one] | 250 to 1000 | – | C (C=>50) | < 50
9 | CC(C)(CCCCO)c1noc(-c2cnc(Nc3ccc4c(c3)C(C)(C)OC4=O)nc2N[C@H](CO)c2ccccc2)n1 [Example 37, 5-[(4-{[(1S)-2-hydroxy-1-phenylethyl]amino}-5-[3-(6-hydroxy-2-methylhexan-2-yl)-1,2,4-oxadiazol-5-yl]pyrimidin-2-yl)amino]-3,3-dimethyl-1,3-dihydro-2-benzofuran-1-one] | 250 to 1000 | – | C (C=>50) | < 50
10 | CC1(C)OC(=O)c2ccc(Nc3ncc(-c4nc(C5(CO)CC5)no4)c(N[C@H](CO)c4ccccc4)n3)cc21 [Example 38, 5-[(4-{[(1S)-2-hydroxy-1-phenylethyl]amino}-5-{3-[1-(hydroxymethyl)cyclopropyl]-1,2,4-oxadiazol-5-yl}pyrimidin-2-yl)amino]-3,3-dimethyl-1,3-dihydro-2-benzofuran-1-one] | 50 to 250 | – | C (C=>50) | < 50
11 | CC1(C)OC(=O)c2ccc(Nc3ncc(-c4nc(C5CC(F)(F)C5)no4)c(N[C@H](CO)c4ccccc4)n3)cc21 [Example 40, 5-({5-[3-(3,3-difluorocyclobutyl)-1,2,4-oxadiazol-5-yl]-4-{[(1S)-2-hydroxy-1-phenylethyl]amino}pyrimidin-2-yl}amino)-3,3-dimethyl-1,3-dihydro-2-benzofuran-1-one] | 250 to 1000 | – | C (C=>50) | < 50
12 | CC(C)(CO)c1noc(-c2cnc(Nc3ccc4c(c3)C(C)(C)OC4=O)nc2N[C@H](CO)c2ccccc2)n1 [Example 41, (S)-5-((4-((2-hydroxy-1-phenylethyl)amino)-5-(3-(1-hydroxy-2-methylpropan-2-yl)-1,2,4-oxadiazol-5-yl)pyrimidin-2-yl)amino)-3,3-dimethylisobenzofuran-1(3H)-one] | 50 to 250 | – | C (C=>50) | < 50
13 | CC1(C)OC(=O)c2ccc(Nc3ncc(-c4nc(-c5ccccn5)no4)c(N[C@H](CO)c4ccccc4)n3)cc21 [Example 42, 5-[(4-{[(1S)-2-hydroxy-1-phenylethyl]amino}-5-[3-(pyridin-2-yl)-1,2,4-oxadiazol-5-yl]pyrimidin-2-yl)amino]-3,3-dimethyl-1,3-dihydro-2-benzofuran-1-one] | 250 to 1000 | – | C (C=>50) | < 50
14 | CC1(C)OC(=O)c2ccc(Nc3ncc(-c4nc(-c5cccnc5)no4)c(N[C@H](CO)c4ccccc4)n3)cc21 [Example 43, 5-[(4-{[(1S)-2-hydroxy-1-phenylethyl]amino}-5-[3-(pyridin-3-yl)-1,2,4-oxadiazol-5-yl]pyrimidin-2-yl)amino]-3,3-dimethyl-1,3-dihydro-2-benzofuran-1-one] | 250 to 1000 | – | C (C=>50) | < 50
15 | CC1(C)OC(=O)c2ccc(Nc3ncc(-c4nc(-c5cccc(F)c5)no4)c(N[C@H](CO)c4ccccc4)n3)cc21 [Example 45, 5-({5-[3-(3-fluorophenyl)-1,2,4-oxadiazol-5-yl]-4-{[(1S)-2-hydroxy-1-phenylethyl]amino}pyrimidin-2-yl}amino)-3,3-dimethyl-1,3-dihydro-2-benzofuran-1-one] | 250 to 1000 | – | B (B=10 to 50) | 50 to 250
16 | CC1(C)OC(=O)c2ccc(Nc3ncc(-c4nc(C56CC(N)(C5)C6)no4)c(N[C@H](CO)c4ccccc4)n3)cc21 [Example 47, 5-{[5-(3-{3-aminobicyclo[1.1.1]pentan-1-yl}-1,2,4-oxadiazol-5-yl)-4-{[(1S)-2-hydroxy-1-phenylethyl]amino}pyrimidin-2-yl]amino}-3,3-dimethyl-1,3-dihydro-2-benzofuran-1-one] | 250 to 1000 | – | C (C=>50) | < 50
17 | CN(C)C12CC(c3noc(-c4cnc(Nc5ccc6c(c5)C(C)(C)OC6=O)nc4N[C@H](CO)c4ccccc4)n3)(C1)C2 [Example 48, 5-[(5-{3-[3-(dimethylamino)bicyclo[1.1.1]pentan-1-yl]-1,2,4-oxadiazol-5-yl}-4-{[(1S)-2-hydroxy-1-phenylethyl]amino}pyrimidin-2-yl)amino]-3,3-dimethyl-1,3-dihydro-2-benzofuran-1-one] | 250 to 1000 | – | C (C=>50) | < 50
18 | CC(=O)NC12CC(c3noc(-c4cnc(Nc5ccc6c(c5)C(C)(C)OC6=O)nc4N[C@H](CO)c4ccccc4)n3)(C1)C2 [Example 49, N-[3-(5-{2-[(3,3-dimethyl-1-oxo-1,3-dihydro-2-benzofuran-5-yl)amino]-4-{[(1S)-2-hydroxy-1-phenylethyl]amino}pyrimidin-5-yl}-1,2,4-oxadiazol-3-yl)bicyclo[1.1.1]penta-1-yl]acetamide] | 250 to 1000 | – | C (C=>50) | < 50
